Activity calls are given as the source filed them. How the calls were made is not given here. Where only a bound is given, the exact number is not on record here.

For orientation: Kd means the free concentration of one partner at which half of the binding sites on the other are occupied at equilibrium, for simple one-to-one binding.

Chain of Peptidyl-prolyl cis-trans isomerase FKBP1A (Homo sapiens) (P62942 whole entry, looked up): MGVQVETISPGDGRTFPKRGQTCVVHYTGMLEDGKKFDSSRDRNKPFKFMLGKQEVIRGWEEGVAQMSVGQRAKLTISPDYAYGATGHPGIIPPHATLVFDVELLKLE

The assay concerns the target Peptidyl-prolyl cis-trans isomerase FKBP1A (Homo sapiens) (UniProt P62942). As to the kind of experiment: FKBP12 binders, biophysical, NMR detection (AID 608). The following applies: NMR binding, purified FKBP12.
Regarding `OC(CCl)c1ccc(-n2cncn2)cc1` (configuration not stated), the Kd was > 4 mM (inactive).
With `O=C1C=CC(=O)c2c(O)cccc21`, the Kd was > 4 mM (inactive).
To `O=C(c1sc2cccc(Cl)c2c1Cl)N1CCOCC1` belongs “inactive”; to `O=C(Nn1c(=S)[nH]c2ccccc2c1=O)c1ccncc1`, > 4 mM (inactive).
With `COC(=O)c1c(OC)cc2c(c1C)Oc1c(Cl)c(O)c(Cl)c(C)c1C(=O)O2`, the Kd is > 4 mM (inactive).
`COc1cc(-c2coc3cc(OC)c(OC)c(OC)c3c2=O)cc(OC)c1OC`: the Kd was > 4 mM (inactive).
Under `O=C1CSC(=S)N1N1C(=O)C2C3C=CC(C3)C2C1=O` (configuration not stated) stands > 4 mM (inactive); under `O=C(O)c1cn(-c2ccccc2)nc1-c1ccncc1`, > 4 mM (inactive).
`OCc1ccc(N2CCOCC2)nc1`: the Kd is > 4 mM (inactive).
Under `S=C(c1cccnc1)N1CCOCC1` stands > 4 mM (inactive).
Consider `Cc1cc(NC(=O)CCCn2cnc([N+](=O)[O-])n2)no1`, for which the Kd was > 4 mM (inactive).
To `Nc1ccc(-n2cccn2)cc1` belongs > 4 mM (inactive).
Regarding `CCOC(=O)c1csc(C2COc3ccccc3O2)n1` (configuration not stated), the Kd was > 4 mM (inactive).
With `CCOC(=O)c1cnc2cc(C)nn2c1C`, the Kd is > 4 mM (inactive).
On to `CCC(=O)NC(=S)Nc1ccc(O)cc1`, for which the Kd is > 4 mM (inactive).
Under `CC(CCC(=O)O)[C@H]1CCC2C3CC[C@@H]4C[C@H](O)CC[C@]4(C)C3CC[C@@]21C` (some centres not stated) stands > 4 mM (inactive).
For the molecule `O=C(O)C1CC(C2CCCCN2)CN2CCCCC12` (configuration not stated), the Kd is > 4 mM (inactive).
To `COc1ccc2c(c1)CCCN2C(N)=O` belongs > 4 mM (inactive); to `NS(=O)(=O)c1ccc(NC(=O)c2cccs2)cc1`, > 4 mM (inactive); to `CCNC(=S)N1CCCC(C(N)=O)C1` (configuration not stated), > 4 mM (inactive).
For the molecule `CCOc1ccccc1C(=O)NC1=NCCS1`, the Kd was > 4 mM (inactive).
Regarding `CC1CCC(N2CCN(c3ncccn3)CC2)CC1` (configuration not stated), the Kd is > 4 mM (inactive).
To `C=CCNC(=O)c1nn2cccnc2c1Cl` belongs > 4 mM (inactive); to `O=c1[nH]c2ccccc2c(=O)n1CCCO`, > 4 mM (inactive).
As to `COc1cc(OC)c2c(=O)c(-c3ccccc3)coc2c1`, the Kd was > 4 mM (inactive).
To `Cc1cc(O)cc(=O)n1CCCC(=O)O` belongs > 4 mM (inactive).
To `COCC(=O)NC1CC(C)(C)NC(C)(C)C1` belongs > 4 mM (inactive); to `Nc1nc2ncc(CNc3ccc(C(=O)N[C@@H](CCC(=O)O)C(=O)O)cc3)nc2c(=O)[nH]1`, > 4 mM (inactive); to `CC(=O)N1C(=S)NC(=O)/C1=C\c1cccnc1`, > 4 mM (inactive).
Under `O=c1cnnc(NCc2ccc(F)cc2)[nH]1` stands > 4 mM (inactive); under `Cc1ccc2nc(NC(=O)CN3CCOCC3)sc2c1`, > 4 mM (inactive); under `OCc1ccc2nsnc2c1`, > 4 mM (inactive).
In the case of `S=c1[nH]ncn1-c1ccccc1`, the Kd was > 4 mM (inactive).
Under `COc1c(O)cccc1O` stands > 4 mM (inactive); under `CCCNC(=O)CSc1nnc(C)s1`, > 4 mM (inactive); under `CCn1c2ccccc2c2nn(C)c(=N)nc21`, > 4 mM (inactive).
To `CN1C2CCC1CC(OC(=O)C(CO)c1ccccc1)C2` (configuration not stated) belongs > 4 mM (inactive); to `CC(=O)Oc1ccc(/C=C/c2cc(OC(C)=O)cc(OC(C)=O)c2)cc1`, > 4 mM (inactive); to `O=C1Cn2c(nc3ccccc32)N1c1ccccc1F`, > 4 mM (inactive).
For the molecule `O=C1COc2ccc(C(=O)c3ccccc3)cc2CN1`, the Kd is > 4 mM (inactive).
Under `COc1cc(O)c(C(C)=O)c(OC)c1` stands > 4 mM (inactive); under `CN1CCN(C(=O)c2cc(-c3ccccc3)on2)CC1`, > 4 mM (inactive).
